Laboratory results reported in patent US20040157866A1, “Amide compounds” (priority 2001, published 2004).

What was measured:
ddY-mice = experiment: Test 2: Lipids Lowering Effect on ddY-Mice; format: in vivo; conditions: male ddY-mice, oral dose 10 mg/kg, relative to baseline; for Cholesterol (% of 0 hr) 2 hr: plasma total-cholesterol 2 hours after administration; for Triglyceride (% of 0 hr) 2 hr: plasma triglyceride 2 hours after administration
Text: Test 2: Lipids Lowering Effect on ddY-Mice
Male ddY-mice were housed in temperature- and humidity-controlled rooms and fed with laboratory chow. The animals were randomized according to their body weight and deprived of food just before the experiment. A blood sample (baseline blood sample) was collected from the retro orbital venous plexus before administration of the test drug, and then the animals were orally dosed with the test drug in a vehicle (aqueous solution of 0.5% methylcellulose). Blood samples were drawn at 2 hours after drug administration for the measurement of cholesterol and triglyceride.
Plasma total-cholesterol and plasma triglyceride were determined by conventional enzyme methods using commercially available kits. The cholesterol CII-Test Wako (Wako Pure Chemical Industries, Ltd.) was used for the measurement of cholesterol, and the triglyceride E-test Wako (Wako Pure Chemical Industries, Ltd.) was used for the measurement of triglyceride.
Lipids lowering effects were shown in percent relative to the baseline level (level at 0 hr).

Apo B secretion = experiment: Test 1: Measurement of Inhibition of Apo B Secretion (HepG2 cells, ELISA); format: cell-based; conditions: 1 × 10^−8 M test compound, 15-hour incubation, 0.1% DMSO treated cells as controls; for inhibition at 0.01 µM: Homo sapiens
Protocol: Test 1: Measurement of Inhibition of Apo B Secretion
HepG2 cells were seeded in Eagles medium containing 10% fetal calf serum (FCS) at a density of 30000 cells/well in 96-well plates and allowed to grow for 3 days before treatment. At this time, the medium was replaced with fresh medium containing 0.1% dimethyl sulfoxide (DMSO) and the indicated concentrations of a test compound. After 15-hour incubation, the amount of Apo B and Apo AI accumulated in the media was determined by ELISA.
The assay was carried out at room temperature. A flat bottomed micro ELISA plate (manufactured by Nunc) was coated with an anti Apo B monoclonal antibody solution ([…] in 0.05% carbonate buffer, pH 9.6) by adding the antibody solution at a volume of 100 μl per well. After 1-hour incubation on a plate mixer, the unbound materials were removed by washing the well 3 times with a washing buffer (phosphate buffered saline, pH 7.2 containing 0.1% bovine serum albumin and 0.05% Tween-20). Then 20 μl of a solution of the test compound (dissolved in the culture medium) and 100 μl of a solution of peroxidase coupled anti Apo B antibody were added. After 1-hour incubation on a plate mixer, washing was performed 3 times to remove the unbound materials. A freshly prepared substrate solution (2.5 mg/ml ortho-phenylene diamine and 0.018% H2O2 in 0.11M Na2HPO4-0.044 M sodium citrate buffer, pH 5.4) at a volume of 200 μl was then added to each well. After 20-minute incubation, the enzyme reaction was terminated by adding 50 μl of 0.5 M sulfuric acid. Absorbance of each well was determined at 490 nm using a microplate reader. Apo B concentration was calculated from a standard curve generated from purified Apo B standard that was run in parallel in the same plate. Inhibition of Apo B secretion by the test compound is calculated taking 0.1% DMSO treated cells as controls.
Measurement of Apo AI was performed similar to that of Apo B, except for diluting the sample 11-fold with a dilution buffer (phosphate buffered saline, pH 7.2 containing 0.5% bovine serum albumin and 0.05% Tween-20).
Apo B secretion inhibitors are identified as compounds that decrease Apo B secretion without affecting the secretion of Apo AI.

| Structure (SMILES) | Cholesterol (% of 0 hr) 2 hr (ddY-mice) | Triglyceride (% of 0 hr) 2 hr (ddY-mice) | inhibition at 0.01 µM (Apo B secretion) | Inhibition of Apo B secretion at 1 × 10^−8 M (%) (Apo B secretion) |
| --- | --- | --- | --- | --- |
| O=C(Nc1ccc2c(c1)CCN2CCc1ccccn1)c1ccccc1-c1ccc(C(F)(F)F)cc1 [Example 1, N-{1-[2-(2-Pyridinyl)ethyl]-2,3-dihydro-1H-indol-5-yl}-4′-(trifluoromethyl)-1,1′-biphenyl-2-carboxamide] | 90 % of 0 hr | 13 % of 0 hr | 92.2% |  |
| O=C(Nc1ccc2c(c1)CCN2C(=O)Cc1ccccn1)c1ccccc1-c1ccc(C(F)(F)F)cc1 [Example 4, N-[1-(2-Pyridinylacetyl)-2,3-dihydro-1H-indol-5-yl]-4′-(trifluoromethyl)-1,1′-biphenyl-2-carboxamide] | 75 % of 0 hr | 13 % of 0 hr |  | 92.0% |
| Nc1nc(CC(=O)N2CCc3cc(NC(=O)c4ccccc4-c4ccc(C(F)(F)F)cc4)ccc32)cs1 [Example 58, N-{1-[(2-amino-1,3-thiazol-4-yl)acetyl]-2,3-dihydro-1H-indol-5-yl}-4′-(trifluoromethyl)-1,1′-biphenyl-2-carboxamide] |  |  | 90.7% |  |
| Cc1ccc(-c2cc(C)ccc2C(=O)Nc2ccc3c(c2)CCN3C(=O)Cc2ccccn2)cc1 [Example 11, 4′,5-Dimethyl-N-[1-(2-pyridinylacetyl)-2,3-dihydro-1H-indol-5-yl]-1,1′-biphenyl-2-carboxamide] |  |  |  | 97.2% |
